Data reported in US5830855A, “Lipodepsipeptides as antifungal and fungicidal agents” (priority 1996, dated 1998).
Converted amounts (≈) assume the structure as drawn. Numbered stars: 1 amine (or outer) side, 2 acyl side, 3 side chain; on linkers, the order of the positions; unused ones are H or OH. Bridge positions count the residues as written; N and C are the ends. Square brackets hold non-standard residues; d marks the D form. Peptide text beside a SMILES is read from it. * marks the point of attachment. ξ: configuration not given here. ξAsp(3ξ-OH) = NC(C(=O)O)C(O)C(=O)O; X3 = O=C(C(N[*:1])C(O)CCl)[*:2]; X2 = CCCCCCCCCCCC(O)CC(=O)*; Orn = NCCC[CH](N)C(=O)O; hSer = N[CH](CCO)C(=O)O; Dab = NCC[CH](N)C(=O)O; Dhb = C/C=C(\N)C(=O)O

Tests used:
[1] = system: Candida parapsilosis; assay: Broth microdilution MIC; type: cell-based; conditions: Table 1 (MICs), 2 isolates, 48 hr
Experimental: (§1) Medium: Liquid RPMI 1640 (RPMI) medium with L-glutamine and without sodium bicarbonate (Sigma Chemical Co., R-6504; St. Louis, Mo.) buffered with 0.165M MOPS (34.54 g/liter) was used for in vitro antifungal tests. The medium was adjusted to pH 7.0 with 10M NaOH and filter sterilized.
(§2) Lipodepsipeptide Dilutions: All stock drug solution concentrations were at least 10-fold higher than the highest concentration tested. AmB, ketoconazole, and the test compounds (SR-E, ST-B, and SS-A) were dissolved in sterile distilled water, 0.2N HCl, and 0.001N HCl, respectively. Each stock solution was diluted to 2× the highest concentration of drug tested with RPMI. Two-fold dilutions were made with RPMI medium.
(§3) Preparation of Inoculum Suspensions: On Sabouraud dextose agar (SDA; BBL, Becton and Dickinson and Co., Cockeysville, Md.) all isolates were subcultured at least twice before use to ensure purity and viability. Candida spp. and Saccharomyces cerevisiae were grown for 24 hr at 35° C. Isolates of Cryptococcus neoformans were grown for 48 hr at 35° C. Yeast cells from at least five 1-mm-diameter colonies were suspended in 5 ml of sterile 0.85% saline. The resulting suspension was vortexed for 15 sec. The turbidity of each mixed suspension was measured at 530 nm and adjusted to 1×10^6 to 5×10^6 CFU/ml by the NCCLS spectrophotometric method described by National Committee for Clinical Laboratory Standards. 1992. Reference method for broth dilution antifungal susceptibility testing of yeasts; proposed standard, NCCLS document M27-P (ISBN 1-56238-186-5). NCCLS, Villanova. The final transmission of each yeast suspension ranged from 85-87%.
(§4) Aspergillus fumigatus and Mucor spp. were grown for 1 wk at 35° C. The dermatophytes, Microsporum spp. and Trichophyton spp., were grown for two wk at 30° C. Fungal spores were washed from the plates of all good spore formers (A. fumigatus, Mucor spp., Microsporum canis and Trichophyton spp.) by placing 5 ml of 0.85% saline with 0.2% Tween 80 on the plates and mixing with an inoculating loop. The spore/mycelium suspension was drawn off with a pipette and allowed to settle for at least 5 min. For the poor spore-forming Microsporum audouinii, the procedure was the same except the spore/mycelial suspension was homogenized with a ground glass tissue homogenizer and then allowed to settle for at least 5 min. A small amount of the supernatant was transferred to 5 ml of sterile saline and vortexed. The stock suspensions of all filamentous fungi were measured at 530 nm and adjusted to 85-87% transmission. The concentration (1×10^6 to 5×10^6 CFU/ml) was determined by hemacytometer count or plate count on SDA. All stock suspensions were diluted 1000-fold with RPMI, or 2× the final desired test inocula. The 2× inoculum was diluted 1:1 when the wells were inoculated, and the desired inoculum size was achieved.
(§5) Broth Microdilution Test: Broth microdilution tests were performed using sterile, disposable, multiwell microdilution plates (96 round U-bottom wells) (Falcon 3077; Becton and Dickinson Labware, Lincoln Park, N.J.). The drugs (2× concentrations) were dispensed into the wells of rows number 1 to 10 of the microdilution plates in 100 μl volumes from highest drug concentration to lowest drug concentration. Each well was inoculated with 100 μl of the corresponding 2× concentrated fungal suspension. The wells of row 11 contained the inoculum with drug-free media as a positive growth control and the wells of row 12 contained uninoculated-drug-free medium as a sterility control.
(§6) Incubation and Scoring of MIC: All cultures were incubated without shaking at the temperature used during subculture. Incubation times were 48 hr for Candida spp., S. cerevisiae, A. fumigatus, and Mucor spp; 72 hr for C. neoformans; and 7 days for Microsporum and Trichophyton spp. […]

[2] = system: Saccharomyces cerevisiae; assay: Broth microdilution MIC; type: cell-based; conditions: Table 1 (MICs), 1 strain tested more than once (control ATCC 36375), 48 hr
Experimental: as §1, §2, §3, §4, §5, §6

[3] = system: Candida lusitaniae; assay: Broth microdilution MIC; type: cell-based; conditions: Table 1 (MICs), 2 isolates, 48 hr
Experimental: as §1, §2, §3, §4, §5, §6

[4] = system: Candida albicans; assay: Broth microdilution MIC; type: cell-based; conditions: for MIC range: Table 1 (MICs), Candida albicans, 20 isolates, RPMI pH 7.0, 48 hr, Ktz read at score 2, others at score 0
Experimental: as §1, §2, §3, §4, §5, §6

[5] = system: Microsporum spp.; assay: Broth microdilution MIC; type: cell-based; conditions: Table 1 (MICs), 2 isolates, 7 days
Experimental: as §1, §2, §3, §4, §5, §6

[6] = system: Cryptococcus neoformans; assay: Broth microdilution MIC; type: cell-based; conditions: Table 1 (MICs); Cryptococcus neoformans, 14 isolates; 72 hr
Experimental: as §1, §2, §3, §4, §5, §6

[7] = system: Candida krusei; assay: Broth microdilution MIC; type: cell-based; conditions: Table 1 (MICs), 2 isolates, 48 hr
Experimental: as §1, §2, §3, §4, §5, §6

[8] = system: Aspergillus fumigatus; assay: Broth microdilution MIC; type: cell-based; conditions: Table 1 (MICs), 16 isolates, 48 hr
Experimental: as §1, §2, §3, §4, §5, §6

[9] = system: Candida tropicalis; assay: Broth microdilution MIC; type: cell-based; conditions: Table 1 (MICs); Candida tropicalis, 2 isolates; 48 hr
Experimental: as §1, §2, §3, §4, §5, §6

[10] = system: Trichophyton spp.; assay: Broth microdilution MIC; type: cell-based; conditions: Table 1 (MICs), 3 isolates, 7 days
Experimental: as §1, §2, §3, §4, §5, §6

[11] = system: Candida rugosa; assay: Broth microdilution MIC; type: cell-based; conditions: Table 1 (MICs); Candida rugosa, 2 isolates; 48 hr
Experimental: as §1, §2, §3, §4, §5, §6

[12] = system: Candida kefyr; assay: Broth microdilution MIC; type: cell-based; conditions: Table 1 (MICs), 1 isolate, 48 hr
Experimental: as §1, §2, §3, §4, §5, §6

[13] = system: Candida parapsilosis; assay: Minimum Fungicidal Concentration (MFC); type: cell-based; conditions: Table 2, 2 isolates, 24 hr
Experimental: as §1, §2, §3, §4, §5, §6

[14] = system: Saccharomyces cerevisiae; assay: Minimum Fungicidal Concentration (MFC); type: cell-based; conditions: Table 2, 1 strain tested more than once, 24 hr
Experimental: as §1, §2, §3, §4, §5, §6

[15] = system: Candida lusitaniae; assay: Minimum Fungicidal Concentration (MFC); type: cell-based; conditions: Table 2, 2 isolates, 24 hr
Experimental: as §1, §2, §3, §4, §5, §6

[16] = system: Candida albicans; assay: Minimum Fungicidal Concentration (MFC); type: cell-based; conditions: Table 2, 20 isolates, subculture on drug-free SDA 24 hr
Experimental: as §1, §2, §3, §4, §5, §6

[17] = system: Microsporum spp.; assay: Minimum Fungicidal Concentration (MFC); type: cell-based; conditions: Table 2, 2 isolates, 7 d
Experimental: as §1, §2, §3, §4, §5, §6

[18] = system: Cryptococcus neoformans; assay: Minimum Fungicidal Concentration (MFC); type: cell-based; conditions: Table 2, 14 isolates, 48 hr
Experimental: as §1, §2, §3, §4, §5, §6

[19] = system: Candida krusei; assay: Minimum Fungicidal Concentration (MFC); type: cell-based; conditions: Table 2, 2 isolates, 24 hr
Experimental: as §1, §2, §3, §4, §5, §6

[20] = system: Aspergillus fumigatus; assay: Minimum Fungicidal Concentration (MFC); type: cell-based; conditions: Table 2, 16 isolates, 48 hr
Experimental: as §1, §2, §3, §4, §5, §6

[21] = system: Candida tropicalis; assay: Minimum Fungicidal Concentration (MFC); type: cell-based; conditions: Table 2, 2 isolates, 24 hr
Experimental: as §1, §2, §3, §4, §5, §6

[22] = system: Trichophyton spp.; assay: Minimum Fungicidal Concentration (MFC); type: cell-based; conditions: Table 2, 3 isolates, 7 d
Experimental: as §1, §2, §3, §4, §5, §6

[23] = system: Candida kefyr; assay: Minimum Fungicidal Concentration (MFC); type: cell-based; conditions: Table 2, 1 isolate, 24 hr
Experimental: as §1, §2, §3, §4, §5, §6

[24] = system: Candida rugosa; assay: Minimum Fungicidal Concentration (MFC); type: cell-based; conditions: Table 2, 2 isolates, 24 hr
Experimental: as §1, §2, §3, §4, §5, §6

[25] = system: fungal isolates; assay: Fungicidal activity (MFC), fungal isolates overall; type: cell-based, fungi; conditions: Table 2 organisms
Experimental: as §1, §2
Preparation of Inoculum Suspensions: On Sabouraud dextose agar (SDA; BBL, Becton and Dickinson and Co., Cockeysville, Md.) all isolates were subcultured at least twice before use to ensure purity and viability. […] The turbidity of each mixed suspension was measured at 530 nm and adjusted to 1×10^6 to 5×10^6 CFU/ml by the NCCLS spectrophotometric method described by National Committee for Clinical Laboratory Standards. […]
Aspergillus fumigatus and Mucor spp. were grown for 1 wk at 35° C. […] The stock suspensions of all filamentous fungi were measured at 530 nm and adjusted to 85-87% transmission. The concentration (1×10^6 to 5×10^6 CFU/ml) was determined by hemacytometer count or plate count on SDA. […]

| Structure (SMILES) | MIC range [1] [µg/mL] | MFC (μg/ml) range [2] [µg/mL] | MIC range [3] [µg/mL] | MIC range [4] [µg/mL] | MIC range [5] [µg/mL] | MIC range [6] [µg/mL] | MIC (μg/ml) range [7] [µg/mL] | MIC (μg/ml) range [9] [µg/mL] | MIC range [10] [µg/mL] | MIC range [11] [µg/mL] | MIC (μg/ml) range [12] [µg/mL] | MFC (μg/ml) range [13] [µg/mL] | MFC (μg/ml) range [14] [µg/mL] | MFC (μg/ml) range [15] [µg/mL] | MFC (μg/ml) range [19] [µg/mL] | MFC (μg/ml) range [21] [µg/mL] | MFC (μg/ml) range [23] [µg/mL] | further results |
| --- | --- | --- | --- | --- | --- | --- | --- | --- | --- | --- | --- | --- | --- | --- | --- | --- | --- | --- |
| C/C=C1\NC(=O)C(C(C)O)NC(=O)C(CCCN)NC(=O)C(CCO)NC(=O)C(CCN)NC(=O)C(CCN)NC(=O)C(NC(=O)CC(O)CCCCCCCCCCC)COC(=O)C(C(O)CCl)NC(=O)C(C(O)C(=O)O)NC1=O (stereo not shown) [SS-A, syringostatin-A] (X2-S[Dab][Dab][hSer][Orn]T[Dhb][ξAsp(3ξ-OH)][X3]; ester 1-C; configuration not given here) | 2.5 to 5 | 2.5 (≈ 2.12 µM) | 5 (≈ 4.24 µM) | 2.5 to 5 | 2.5 to 5 | 2.5 to 10 | 10 (≈ 8.48 µM) | 2.5 to 5 | 2.5 to 5 | 10 to 20 | 2.5 (≈ 2.12 µM) | 2.5 to 10 | 5 (≈ 4.24 µM) | 5 (≈ 4.24 µM) | 10 to 20 | 5 (≈ 4.24 µM) | 2.5 (≈ 2.12 µM) | MIC range [8]: 5 to 40 µg/mL; MFC (μg/ml) range [16]: 2.5 to 10 µg/mL; MFC (μg/ml) range [17]: 5 µg/mL (≈ 4.24 µM); MFC (μg/ml) range [18]: 2.5 to 10 µg/mL; MFC (μg/ml) range [20]: 5 to 40 µg/mL; MFC (μg/ml) range [22]: 5 µg/mL (≈ 4.24 µM) |
| CC(=O)N1CCN(c2ccc(OCC3COC(Cn4ccnc4)(c4ccc(Cl)cc4Cl)O3)cc2)CC1 (stereo not shown) [Ktz, ketoconazole, reference compound] | 0.02 (≈ 0.0376 µM) | 0.15 (≈ 0.282 µM) | 0.02 (≈ 0.0376 µM) | 0.02 to 10 | 0.8 to 1.6 | 0.04 to 0.6 | 0.15 (≈ 0.282 µM) | 0.08 to 0.6 | 0.4 to 3.1 | 0.02 (≈ 0.0376 µM) | 0.02 (≈ 0.0376 µM) | 0.04 (≈ 0.0753 µM) | 0.6 to 1.25 | ≤ 0.02 | 0.15 (≈ 0.282 µM) | 2.5 to 10 | 1.25 (≈ 2.35 µM) | MIC, one strain of C. albicans ([4]; one strain of C. albicans resistant to ketoconazole): 10 µg/mL; MFC (μg/ml) range [24]: ≤0.02 to 0.08 µg/mL; fungicidal activity [25]: fungicidal activity only against C. krusei |
